The source of these data is patent US11247966B2, “4-(p-trifluoromethylbenzyl)-3-fluoro-1,2,4-triphenylamine derivative and pharmaceutical composition and applications thereof” (HEBEI MEDICAL UNIVERSITY, priority 2018, dated 2022).

The target of data set [1] is KCNQ2/3 channels (Homo sapiens, UniProt O43525+O43526). The experiment in a line: High-throughput determination of Rb+ efflux by atomic absorption spectrometry. Format: cell-based. From the text: The determination technique of Rb^+ efflux by AAS is safer and faster in high-throughput screening of potassium channel regulators, and has the characteristics of directly reflecting the activity of ion channels and the regulatory role of regulators. Rb has a similar atomic size to K, and the potassium channel is permeable to Rb^+, the opening or closing of the potassium channel can be determined by measuring the concentration of Rb^+ efflux. Rb has a specific atomic absorption at 780 nm and the Rb^+ concentration can be measured by AAS. Therefore, AAS can be used to screen potassium channel openers or shutters by the high-throughput determination technique for measuring Rb^+ efflux.
Chain of KCNQ2/3 channels (O43525 whole entry): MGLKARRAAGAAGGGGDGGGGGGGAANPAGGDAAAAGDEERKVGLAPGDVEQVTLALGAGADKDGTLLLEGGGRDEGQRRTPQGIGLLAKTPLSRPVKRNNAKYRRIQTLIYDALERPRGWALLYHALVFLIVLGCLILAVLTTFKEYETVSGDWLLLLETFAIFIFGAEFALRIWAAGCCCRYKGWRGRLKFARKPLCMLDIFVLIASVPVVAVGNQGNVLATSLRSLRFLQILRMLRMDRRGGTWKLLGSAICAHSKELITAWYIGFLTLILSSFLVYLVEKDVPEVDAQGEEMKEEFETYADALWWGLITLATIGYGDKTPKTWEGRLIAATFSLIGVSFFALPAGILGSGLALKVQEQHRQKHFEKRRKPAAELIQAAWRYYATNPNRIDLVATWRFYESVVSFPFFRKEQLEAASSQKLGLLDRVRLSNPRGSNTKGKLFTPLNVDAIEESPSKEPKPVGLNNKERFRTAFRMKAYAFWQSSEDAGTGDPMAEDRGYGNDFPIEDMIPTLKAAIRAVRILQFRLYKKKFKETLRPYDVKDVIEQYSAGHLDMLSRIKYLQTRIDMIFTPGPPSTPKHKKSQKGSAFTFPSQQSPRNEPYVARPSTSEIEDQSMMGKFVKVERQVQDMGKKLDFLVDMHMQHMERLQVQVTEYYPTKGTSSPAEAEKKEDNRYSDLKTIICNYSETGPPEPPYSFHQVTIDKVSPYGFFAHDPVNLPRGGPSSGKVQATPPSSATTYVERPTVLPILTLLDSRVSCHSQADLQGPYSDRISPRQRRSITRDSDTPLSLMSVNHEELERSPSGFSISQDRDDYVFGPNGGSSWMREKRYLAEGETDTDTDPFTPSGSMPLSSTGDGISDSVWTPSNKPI
Chain of KCNQ2/3 channels (O43526 whole entry): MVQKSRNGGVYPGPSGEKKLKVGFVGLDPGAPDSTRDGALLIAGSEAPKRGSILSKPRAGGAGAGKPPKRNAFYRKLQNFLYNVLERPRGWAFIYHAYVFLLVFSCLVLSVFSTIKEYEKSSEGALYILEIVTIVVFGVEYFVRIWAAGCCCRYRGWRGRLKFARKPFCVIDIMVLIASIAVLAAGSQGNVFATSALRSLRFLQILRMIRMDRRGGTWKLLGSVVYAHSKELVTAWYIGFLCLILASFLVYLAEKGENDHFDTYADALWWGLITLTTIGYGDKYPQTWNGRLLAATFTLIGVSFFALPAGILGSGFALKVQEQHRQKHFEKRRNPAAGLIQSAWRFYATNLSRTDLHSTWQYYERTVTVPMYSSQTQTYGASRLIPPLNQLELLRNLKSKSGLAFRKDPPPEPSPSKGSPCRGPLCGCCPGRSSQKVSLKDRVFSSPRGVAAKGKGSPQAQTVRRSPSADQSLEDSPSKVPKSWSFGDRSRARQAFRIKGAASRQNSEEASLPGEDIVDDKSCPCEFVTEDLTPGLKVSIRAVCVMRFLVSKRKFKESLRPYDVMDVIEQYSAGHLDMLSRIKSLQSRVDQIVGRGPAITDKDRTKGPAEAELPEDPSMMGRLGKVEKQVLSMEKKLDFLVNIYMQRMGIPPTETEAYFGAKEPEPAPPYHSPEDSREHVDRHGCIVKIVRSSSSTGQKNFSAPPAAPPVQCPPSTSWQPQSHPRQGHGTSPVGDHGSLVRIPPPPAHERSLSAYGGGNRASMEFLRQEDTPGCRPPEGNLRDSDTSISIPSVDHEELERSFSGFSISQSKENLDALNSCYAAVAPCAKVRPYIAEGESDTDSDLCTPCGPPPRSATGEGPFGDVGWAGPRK
Chinese hamster ovary (CHO) cells with stable KCNQ2/3 channels in logarithmic growth phase are inoculated on a 96-well plate at a density of 2×10^4 cells/well. Three wells are provided for each concentration. Solvent control wells having the corresponding concentrations are arranged. After adherent growth overnight, the culture medium is discarded, and 200 μl of a loading buffer containing RbCL is added, and culturing is performed at 37° C. and under 5% CO2 for 3 h. The loading buffer is then discarded and washing is performed 3 times with a wash buffer. To screen the channel opener, the compound to be tested is diluted in a depolarizing buffer and 200 μl of the above solution is added into the cells and reacted for 10 min. After incubation for 10 min, 200 μl of a supernatant is carefully transferred into another 96-well plate. Rb^+ atomic absorption at 780 nm is determined by an ICR8000 atomic absorption spectrometer. The relative efflux is calculated according to the formula Fsupern=(Rb_supern/cpd/Rb_supern/d)*100.

Data set [2] relates to KM mice. The experiment in a line: Pentylenetetrazole (PTZ)-induced epilepsy model. Format: in vivo. The note with it: PTZ 85 mg/kg s.c. The protocol:
Experimental conditions: room temperature 25±1° C.
Experimental animals: KM mice, half male and half female, weighing 18-25 g, 10-12 mice in each group, adapt to the environment for 3 days and eat and drink freely.
Methods: the day before the experiment, each animal is labeled to ensure that the determination time of each animal after administration is consistent. The experimental animals fast for more than 8 h the night before the experiment. […] After the drugs are absorbed, the model is made by the subcutaneous administration of 85 mg/kg PTZ (administration volume of 0.1 ml/10 g) body weight to the neck and back. After PTZ administration, time is counted and the model is put into the transparent observation box in time to keep the environment quiet. The seizure threshold and the number of non-seizure animals are recorded. […] The seizure threshold and the rate of non-death mice (i.e. protective rate) within 12 h after constructing the mold are compared.

The test system of data set [3] is Kunming mice. The experiment in a line: Maximum electroshock seizure (MES) experimental model. The format is in vivo. The protocol:
Methods: Kunming mice, male, 18-22 g, are placed in the experimental environment 3 days before the experiment to make them adapt to the environment, eat and drink freely; the room temperature is 23-25° C.
The experimental instrument is YLS-9A physiological and pharmacological electronic stimulator: continuous wave output; wave width of 20 ms; gap of 10 ms; wave number of 70; voltage of 60 V; current limit of 3.5 mA.
Methods: 24 hours before the formal experiment, the mice are screened, the stimulator is set according to the above parameters, the mouse ears are clamped with crocodile clip of the stimulator, and the stimulation is started. The ankylosis of the hind limbs of the mice is taken as a positive index to screen the qualified (positive) mice and eliminate the substandard mice. In the formal experiment, the grouping is randomly performed with 10 mice in each group according to the experimental scheme, and the electrical stimulation is carried out. If no ankylosis is found in the hind limbs, it is effective (positive).

The target of data set [4] is KCNQ2/3 (Kv7.2/7.3) (Homo sapiens, UniProt O43525+O43526). Description: Electrophysiological patch clamp determination, KCNQ2/3. The note with it: whole-cell patch clamp, CHO cells; read-out: EC50 value, activation of KCNQ2/3 (Kv7.2/7.3). The format is cell-based. As for the experimental part:
(§1) CHO cells culture: CHO cells with stable KCNQ channels are cultured in a DMEM culture solution containing 10% fetal bovine serum, 100 U/ml penicillin and streptomycin, and then digested and passaged by pancreatin. The cells are placed on a 12 mm round cover glass and cultured in a 24-well plate.
(§2) Cell membrane current record by patch clamp technique: HEKA-EPC10 is used as a patch clamp amplifier. Amphotericin B (final concentration of 0.1-0.2 mg/ml) is used in the electrode to record the perforation patch clamp. After polishing, the microelectrode is filled with an electrode inner fluid, and the resistance value is controlled to be 2-4 MΩ. The electrode inner fluid used for recording CHO cells is (mM): KCl 160, HEPES 5, MgCl2 3, CaCl2 1 and EGTA 3, and the pH is adjusted to 7.4 with KOH. The components of the extracellular fluid are (mM): NaCl 160, KCl 2.5, HEPES 10, glucose 8, MgCl2 1 and CaCl2 5. After forming a giant resistance seal between the microelectrode and the cell membrane, the current is recorded under voltage clamping.
In general terms: The patch-clamp technique gives a direct electrical read-out from membranes.

Data set [5] deals with KCNQ4 (Kv7.4) (Homo sapiens, UniProt P56696). Description: Electrophysiological patch clamp determination, KCNQ4. The note with it: CHO cells. Format: cell-based. As for the experimental part: as §1, §2
Setting [6] is: Rb+ efflux by AAS, CHO cells with stable KCNQ2/3 channels, read-out: KCNQ2/3 EC50.
The mark [7] stands for this setting: intraperitoneal 1 mg/kg body weight.

SMILES strings stand for the structures. Read-outs that look alike come from different tables or passages of the source.

As a reminder, the melting point is the temperature of the solid-liquid transition. `Nc1c(NC(=O)CCCc2ccccc2)ccc(NCc2ccc(C(F)(F)F)cc2)c1F` [Compound 7]: the melting point fell in the range of 198.5 to 199.5 °C. For the same compound, the EC50 in data set [1] (setting [6]) amounted to 5260 ± 820 nM.

The compound `Nc1c(NC(=O)CCc2ccco2)ccc(NCc2ccc(C(F)(F)F)cc2)c1F` [Compound 6, N-(2-amino-3-fluoro-4-(4-trifluoromethylbenzylamino)-phenyl)-3-furanyl-2-propanamide] came in with a melting point of 212.2 to 213.5 °C. The EC50 in data set [1] (setting [6]) is 3580 ± 730 nM.

As for `Nc1c(NC(=O)C2CCCC2)ccc(NCc2ccc(C(F)(F)F)cc2)c1F` [Compound 3, N-(2-amino-3-fluoro-4-(4-trifluoromethylbenzylamino)-phenyl)-cyclopentyl Formamide], the melting point lay in the range of 222.9 to 223.5 °C. Moreover, the EC50 in data set [1] (setting [6]) was determined as 2830 ± 210 nM.

For `Nc1c(NC(=O)CCC2CCCC2)ccc(NCc2ccc(C(F)(F)F)cc2)c1F` [Compound 1, N-(2-amino-3-fluoro-4-(4-trifluoromethylbenzylamino)-phenyl)-cyclopentyl propionamide], the “protective rate (non-death mice within 12 h)” value in data set [2] (3 mg/kg body weight i.p.) and in data set [2] (5 mg/kg body weight i.p.) was 100% in each case. Besides, the figures for the seizure threshold in data set [2] (3 mg/kg body weight i.p.) and in data set [2] (5 mg/kg body weight i.p.) were 867.21 ± 152.51 s and 1185.96 ± 134.28 s, respectively. Further, the EC50 is 150 ± 40 nM in data set [1] (setting [6]) and 380 ± 100 nM in data set [4]. Besides, the “effective rate (no ankylosis of hind limbs)” value in data set [3] (setting [7]) is reported as 100%. The “opening activity to KCNQ4 (Kv7.4)” value in data set [5] is “relatively small”.

`Nc1c(NC(=O)CCN2CCCCC2)ccc(NCc2ccc(C(F)(F)F)cc2)c1F` [Compound 5, N-(2-amino-3-fluoro-4-(4-trifluoromethylbenzylamino)-phenyl)-3-piperidinyl-1-propionamide] returned a melting point of 202.1 to 203.5 °C. In data set [1] (setting [6]), the EC50 was 750 ± 120 nM.

Turning to `Nc1c(NC(=O)CC2CCCC2)ccc(NCc2ccc(C(F)(F)F)cc2)c1F` [Compound 4, N-(2-amino-3-fluoro-4-(4-trifluoromethylbenzylamino)-phenyl)-cyclopentyl Acetamide], the melting point was 196.9 to 197.5 °C. Further, in data set [1] (setting [6]), the EC50 was determined as 580 ± 130 nM.

For the compound `CC(C)(C)CC(=O)Nc1ccc(NCc2ccc(C(F)(F)F)cc2)c(F)c1N` [Compound 2, N-(2-amino-3-fluoro-4-(4-trifluoromethylbenzylamino)-phenyl)-3,3-dimethyl Butyramide], the EC50 in data set [1] (setting [6]) stood at 210 ± 80 nM. Also, the “effective rate (no ankylosis of hind limbs)” value in data set [3] (setting [7]) is recorded as 90%.

Regarding `CCOC(=O)Nc1ccc(NCc2ccc(F)cc2)cc1N` [RTG, Retigabine, reference compound], in data set [2] (15 mg/kg body weight i.p.), the “protective rate (non-death mice within 12 h)” value is given as 50% and the seizure threshold stood at 858.17 ± 528.48 s. The same compound registered an EC50 in data set [1] of 860 ± 180 nM. Also, the “effective rate (no ankylosis of hind limbs)” value in data set [3] (intraperitoneal 10 mg/kg body weight) is listed as 80%.
